Laboratory results reported in patent publication US10100049B2, “JAK kinase inhibitor compounds for treatment of respiratory disease” (THERAVANCE BIOPHARMA R&D IP, LLC, priority 2015, dated 2018).

Experiments:
[1] = target: JAK2 (Homo sapiens (Human), UniProt O60674)
[2] = tested on: IL-13 induced STAT6 phosphorylation in BEAS-2B human lung epithelial cells; assay: AlphaScreen cellular potency assay, IL-13 induced STAT6 phosphorylation in BEAS-2B cells; format: cell-based; conditions: IL-13 induced STAT6 phosphorylation, BEAS-2B cells; for IC50: Homo sapiens, read-out: BEAS-2B pIC50 (converted)
Method: The AlphaScreen JAM cellular potency assay was carried out by measuring interleukin-13 (IL-13, R&D Systems) induced STAT6 phosphorylation in BEAS-2B human lung epithelial cells (ATCC). The anti-STAT6 antibody (Cell Signaling Technologies) was conjugated to AlphaScreen acceptor beads (Perkin Elmer), while the anti-pSTAT6 (pTyr641) antibody (Cell Signaling Technologies) was biotinylated using EZ-Link Sulfo-NHS-Biotin (Thermo Scientific).
BEAS-2B cells were grown at 37° C. in a 5% CO2 humidified incubator in 50% DMEM/50% F-12 medium (Life Technologies) supplemented with 10% FBS (Hyclone), 100 U/mL penicillin, 100 μg/mL streptomycin (Life Technologies), and 2 mM GlutaMAX (Life Technologies). On day 1 of the assay, cells were seeded at a 7,500 cells/well density in white poly-D-lysine-coated 384-well plates (Corning) with 25 μL medium, and were allowed to adhere overnight in the incubator. On day 2 of the assay, the medium was removed and replaced with 12 μL of assay buffer (Hank's Balanced Salt Solution/HBSS, 25 mM HEPES, and 1 mg/ml bovine serum albumin/BSA) containing dose-responses of test compounds. Compounds were serially diluted in DMSO and then diluted another 1000-fold in media to bring the final DMSO concentration to 0.1%. Cells were incubated with test compounds at 37° C. for 1 h, and followed by the addition of 12 μl of pre-warmed IL-13 (80 ng/ml in assay buffer) for stimulation. After incubating at 37° C. for 30 min, the assay buffer (containing compound and IL-13) was removed, and 10 μl of cell lysis buffer (25 mM HEPES, 0.1% SDS, 1% NP-40, 5 mM MgCl2, 1.3 mM EDTA, 1 mM EGTA, and supplement with Complete Ultra mini protease inhibitors and PhosSTOP from Roche Diagnostics). The plates were shaken at ambient temperature for 30 min before the addition of detection reagents. A mixture of biotin-anti-pSTAT6 and anti-STAT6 conjugated acceptor beads was added first and incubated at ambient temperature for 2 h, followed by the addition of streptavidin conjugated donor beads (Perkin Elmer). After a minimum of 2 h incubation, the assay plates were read on the EnVision plate reader.
Results were expressed as the negative logarithm of the IC50 value, pIC50.

[3] = tested on: IL-13 induced pSTAT6 in lung tissue; assay: Murine model of IL-13 induced pSTAT6 induction in lung tissue; format: in vivo; conditions: mouse lung; for inhibition in vivo at 500 µg/mL / pSTAT6 inhibition Assay 5: 0.5 mg/mL, 50 μL oral aspiration, IL-13 challenge 4 h after dosing, lungs collected 1 h later; for inhibition in vivo at 500 µg/mL: read-out: pSTAT6 inhibition Assay 5
Method: Il-13 is an important cytokine underlying the pathophysiology of asthma (Kudlacz et al. Eur. J. Pharmacol, 2008, 582, 154-161). IL-13 binds to cell surface receptors activating members of the Janus family of kinases (JAK) which then phosphorylate STAT6 and subsequently activates further transcription pathways. In the described model, a dose of IL-13 was delivered locally into the lungs of mice to induce the phosphorylation of STAT6 (pSTAT6) which is then measured as the endpoint.
Adult balb/c mice from Harlan were used in the assay. On the day of study, animals were lightly anesthetized with isoflurane and administered either vehicle or test compound (0.5 mg/mL, 50 μL total volume over several breaths) via oral aspiration. Animals were placed in lateral recumbency post dose and monitored for full recovery from anesthesia before being returned to their home cage. Four hours later, animals were once again briefly anesthetized and challenged with either vehicle or IL-13 (0.03 μg total dose delivered, 50 μL total volume) via oral aspiration before being monitored for recovery from anesthesia and returned to their home cage. One hour after vehicle or IL-13 administration, lungs were collected for both pSTAT6 detection using an anti-pSTAT6 ELISA (rabbit mAb capture/coating antibody; mouse mAb detection/report antibody: anti-pSTAT6-pY641; secondary antibody: anti-mouse IgG-HRP) and analyzed for total drug concentration as described above in Assay 4.
Selected compounds of the invention were tested in the assay. Activity in the model is evidenced by a decrease in the level of pSTAT6 present in the lungs of treated animals at 5 hours compared to the vehicle treated, IL-13 challenged control animals. The difference between the control animals which were vehicle-treated, IL-13 challenged and the control animals which were vehicle-treated, vehicle challenged dictated the 0% and 100% inhibitory effect, respectively, in any given experiment.

[4] = Pharmacokinetics in plasma and lung in mouse; format: in vivo; conditions: oral aspiration 0.2 mg/mL 50 uL, lung AUC (μg hr/g) / plasma AUC (μg hr/mL)
Method: Plasma and lung levels of test compounds and ratios thereof were determined in the following manner. BALB/c mice from Charles River Laboratories were used in the assay. Test compounds were individually formulated in 20% propylene glycol in pH 4 citrate buffer at a concentration of 0.2 mg/mL and 50 uL of the dosing solution was introduced into the trachea of a mouse by oral aspiration. At various time points (typically 0.167, 2, 6, 24 hr) post dosing, blood samples were removed via cardiac puncture and intact lungs were excised from the mice. Blood samples were centrifuged (Eppendorf centrifuge, 5804R) for 4 minutes at approximately 12,000 rpm at 4° C. to collect plasma. Lungs were padded dry, weighed, and homogenized at a dilution of 1:3 in sterile water. Plasma and lung levels of test compound were determined by LC-MS analysis against analytical standards constructed into a standard curve in the test matrix. A lung to plasma ratio was determined as the ratio of the lung AUC in μg hr/g to the plasma AUC in μg hr/mL, where AUC is conventionally defined as the area under the curve of test compound concentration vs. time.

JAK2, sequence (O60674 whole entry): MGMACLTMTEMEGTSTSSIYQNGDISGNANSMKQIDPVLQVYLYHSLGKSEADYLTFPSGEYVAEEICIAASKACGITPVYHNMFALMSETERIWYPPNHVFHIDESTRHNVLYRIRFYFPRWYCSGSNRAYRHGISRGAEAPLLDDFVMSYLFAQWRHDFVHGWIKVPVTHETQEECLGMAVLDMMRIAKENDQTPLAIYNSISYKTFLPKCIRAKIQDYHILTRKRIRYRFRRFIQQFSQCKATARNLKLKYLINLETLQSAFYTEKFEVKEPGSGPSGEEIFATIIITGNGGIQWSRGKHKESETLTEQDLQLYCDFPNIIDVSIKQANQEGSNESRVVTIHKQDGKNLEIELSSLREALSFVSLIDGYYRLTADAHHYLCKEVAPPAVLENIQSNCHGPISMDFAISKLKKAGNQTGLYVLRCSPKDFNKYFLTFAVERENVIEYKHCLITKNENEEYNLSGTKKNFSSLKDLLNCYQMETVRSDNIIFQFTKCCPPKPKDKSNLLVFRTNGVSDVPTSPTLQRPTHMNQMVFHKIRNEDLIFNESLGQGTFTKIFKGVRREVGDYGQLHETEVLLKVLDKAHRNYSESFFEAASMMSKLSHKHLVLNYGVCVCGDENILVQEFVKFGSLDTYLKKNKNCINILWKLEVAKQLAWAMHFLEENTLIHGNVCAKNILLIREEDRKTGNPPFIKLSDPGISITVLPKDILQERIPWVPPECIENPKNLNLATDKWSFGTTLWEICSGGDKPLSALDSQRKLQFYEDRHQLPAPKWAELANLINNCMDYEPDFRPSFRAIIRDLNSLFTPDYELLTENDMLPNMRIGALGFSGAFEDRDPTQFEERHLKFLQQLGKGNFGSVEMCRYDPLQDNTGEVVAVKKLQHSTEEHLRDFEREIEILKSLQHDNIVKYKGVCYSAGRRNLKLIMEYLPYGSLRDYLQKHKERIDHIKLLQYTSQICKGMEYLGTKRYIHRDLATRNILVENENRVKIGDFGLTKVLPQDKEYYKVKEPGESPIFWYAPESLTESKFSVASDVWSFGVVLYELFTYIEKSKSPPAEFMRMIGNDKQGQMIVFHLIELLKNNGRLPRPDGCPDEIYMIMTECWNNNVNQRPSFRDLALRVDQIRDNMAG

CCc1cc(O)c(F)cc1-c1ccc2c(-c3nc4c([nH]3)CCN(C3CN(CCO)C3)C4)n[nH]c2c1 [Example 1-1]
Ki [1]: < 0.1 nM | BEAS-2B pIC50 [2]: B (B represents a pIC50 value between 7.4 and 8 (IC50 between 40 nM and 10 nM))

CCc1cc(O)c(F)cc1-c1ccc2c(-c3nc4c([nH]3)CCN(C3CCNC3)C4)n[nH]c2c1 (stereo not shown) [Example 9-1]
Ki [1]: < 0.1 nM | BEAS-2B pIC50 [2]: B (B represents a pIC50 value between 7.4 and 8 (IC50 between 40 nM and 10 nM))

CCc1cc(O)c(F)cc1-c1ccc2c(-c3nc4c([nH]3)CCN(C[C@@H]3COCCN3)C4)n[nH]c2c1 [Example 14, (R)-5-Ethyl-2-fluoro-4-(3-(5-(morpholin-3-ylmethyl)-4,5,6,7-tetrahydro-1H-imidazo[4,5-c]pyridin-2-yl)-1H-indazol-6-yl)phenol]
inhibition in vivo at 500 µg/mL [3]: > 65% | Ki [1]: < 0.1 nM | Lung to Plasma ratio Assay 4 [4]: A (A denotes a ratio >100) | IC50 [2]: < 10 nM

CCc1cc(O)c(F)cc1-c1ccc2c(-c3nc4c([nH]3)CCN(CCN3CCCC3)C4)n[nH]c2c1 [Example 16, 5-Ethyl-2-fluoro-4-(3-(5-(2-(pyrrolidin-1-yl)ethyl)-4,5,6,7-tetrahydro-1H-imidazo[4,5-c]pyridin-2-yl)-1H-indazol-6-yl)phenol]
Ki [1]: < 0.1 nM | IC50 [2]: < 10 nM

CCc1cc(O)c(F)cc1-c1ccc2c(-c3nc4c([nH]3)CCN(CCNC3(C#N)CC3)C4)n[nH]c2c1 [Example 3-1]
pSTAT6 inhibition in the pharmacodynamic assay [3]: exceptions

CCc1cc(O)c(F)cc1-c1ccc2c(-c3nc4c([nH]3)CCN(C3CN(CC(C)C)C3)C4)n[nH]c2c1 [Example 1-11]
pSTAT6 inhibition Assay 5 [3]: C (C represents between 33% and 50% inhibition) | Lung to Plasma ratio Assay 4 [4]: C (C denotes a ratio between 10 and 50)

CCc1cc(O)c(F)cc1-c1ccc2c(-c3nc4c([nH]3)CCN(C3CN(CCCOC)C3)C4)n[nH]c2c1 [Example 1-7]
pSTAT6 inhibition Assay 5 [3]: C (C represents between 33% and 50% inhibition) | Lung to Plasma ratio Assay 4 [4]: B (B denotes a ratio between 50 and 100)

CCc1cc(O)c(F)cc1-c1ccc2c(-c3nc4c([nH]3)CCN(C3CN(CC)C3)C4)n[nH]c2c1 [Example 1-3]
Ki [1]: < 0.1 nM | BEAS-2B pIC50 [2]: B (B represents a pIC50 value between 7.4 and 8 (IC50 between 40 nM and 10 nM))

CCc1cc(O)c(F)cc1-c1ccc2c(-c3nc4c([nH]3)CCN(C3CN(C5CCS(=O)(=O)C5)C3)C4)n[nH]c2c1 (stereo not shown) [Example 1-15]
pSTAT6 inhibition in the pharmacodynamic assay [3]: exceptions

CCc1cc(O)c(F)cc1-c1ccc2c(-c3nc4c([nH]3)CCN(C3CCNCC3)C4)n[nH]c2c1 [Example 2-3]
Ki [1]: < 0.1 nM | BEAS-2B pIC50 [2]: B (B represents a pIC50 value between 7.4 and 8 (IC50 between 40 nM and 10 nM))

CCc1cc(O)c(F)cc1-c1ccc2c(-c3nc4c([nH]3)CCN(C3CN(C(C)CC)C3)C4)n[nH]c2c1 (stereo not shown) [Example 4, 4-(3-(5-(1-(sec-butyl)azetidin-3-yl)-4,5,6,7-tetrahydro-1H-imidazo[4,5-c]pyridin-2-yl)-1H-indazol-6-yl)-5-ethyl-2-fluorophenol]
inhibition in vivo at 500 µg/mL [3]: > 65% | Lung to Plasma ratio Assay 4 [4]: B (B denotes a ratio between 50 and 100) | IC50 [2]: < 10 nM

CCc1cc(O)c(F)cc1-c1ccc2c(-c3nc4c([nH]3)CCN(C3CN(CCOC)C3)C4)n[nH]c2c1 [Example 1-6]
Ki [1]: < 0.1 nM | BEAS-2B pIC50 [2]: A (A represents a pIC50 value ≥8 (IC50≤10 nM))

CCc1cc(O)c(F)cc1-c1ccc2c(-c3nc4c([nH]3)CCN(C3CN(CC5CC5)C3)C4)n[nH]c2c1 [Example 1-18]
pSTAT6 inhibition Assay 5 [3]: C (C represents between 33% and 50% inhibition) | Lung to Plasma ratio Assay 4 [4]: B (B denotes a ratio between 50 and 100)

CCc1cc(O)c(F)cc1-c1ccc2c(-c3nc4c([nH]3)CCN(CCN(C)CC(C)C)C4)n[nH]c2c1 [Example 3-33]
pSTAT6 inhibition Assay 5 [3]: C (C represents between 33% and 50% inhibition) | Lung to Plasma ratio Assay 4 [4]: A (A denotes a ratio >100)

CCc1cc(O)c(F)cc1-c1ccc2c(-c3nc4c([nH]3)CCN(C3CN(CCC#N)C3)C4)n[nH]c2c1 [Example 1-8]
Ki [1]: < 0.1 nM | BEAS-2B pIC50 [2]: A (A represents a pIC50 value ≥8 (IC50≤10 nM))
